Molecules are shown by their SMILES.

This passage reports logP and logD results from the SangsterLogP compilation.

A short description of one data set: method code SF-AS, from DOI: 10.1016/0006-2952(66)90048-7.
Settings: not given
Consider `NC(=O)c1c(O)cccc1O`, for which the logP (in general, a log measure of how a compound divides between an organic and an aqueous phase) amounted to 0.6.
Consider `O=C(NC(=O)c1c(O)cccc1O)c1c(O)cccc1O`, for which the logP was determined as 1.15.
The same measure, in the same setting: then `O=C(NC(=O)c1ccccc1O)c1ccccc1`, with 1.38.
Same read-out and setting: then `NC(=O)c1ccc(O)cc1O`, with -0.15.
The same measure, in the same setting: in the case of `O=C(NC(=O)c1ccccc1O)c1ccccc1O` it was 1.92; in that of `CC(=O)Oc1cccc(OC(C)=O)c1C(N)=O`, -0.62.
In the case of `O=C(NC(=O)c1ccc(O)cc1O)c1ccc(O)cc1O`, the logP worked out at 0.86.
On the same count and under the same terms, then `O=C(Nc1ccccc1C(=O)O)c1ccccc1O`, with 0.74.
Still for that read-out and setting: in the case of `O=C(O)c1ccccc1NC(=O)c1c(O)cccc1O` it was 0.32.

The same data set, now with this note: pH 7.0.
As to `NC(=O)c1ccccc1O`, the logD (usually lipophilicity at a set pH, counting ionised and neutral species) is 0.89.
Still for that read-out and setting: then `O=C(Nc1ccccc1)c1c(O)cccc1O`, with 1.43.
